Patent publication US20210292438A1, “CONDITIONAL INTERNALIZATION OF PEGYLATED AGENTS BY PRETARGETING BI-SPECIFIC PEG-BINDING ANTIBODIES FOR DIAGNOSIS AND THERAPY” (ACADEMIA SINICA, priority 2017, published 2021)

Legend:
[1] = SCID mice; cited from earlier work
[2] = test system: human MDA-MB-468 TNBC or MDA-MB-231 TNBC xenografts; assay: Anti-tumor activity of pre-targeted PEG engager in xenografts; assay type: in vivo, SCID mice; settings: i.v. once a week for 4 weeks; engager 5 h before drug; free doxorubicin 3 mg/kg, Doxisome 1 mg/kg
Method: Anti-tumor activity of PEG engager was tested in mice bearing human MDA-MB-468 TNBC or MDA-MB-231 TNBC xenografts following the procedure below.
Groups of severe combined immunodeficiency (SCID) mice bearing 44.7±10.7 mm^3 MDA-MB-231 (n=6) or 84.3±4.3 mm^3 subcutaneous MDA-MB-468 (n=8) tumors on their right flanks were intravenously injected with PBS or with 6 or 18 mg/kg PEG engagers. After 5 h, the mice were intravenously administrated with free doxorubicin (3 mg/kg) or Doxisome (1 mg/kg or 3 mg/kg). This treatment was repeated once a week for a total of 4 weeks. Tumour sizes were measured every 7 days.

In the case of COc1cccc2c1C(=O)c1c(O)c3c(c(O)c1C2=O)C[C@@](O)(C(=O)CO)C[C@@H]3O[C@H]1C[C@H](N)[C@H](O)[C@H](C)O1 [doxorubicin], the maximum-tolerated dose [1] is given as 2.5 to 3 mg/kg and the tumor growth [2] is given as “suppressed tumor growth”.
